# Results published in patent US6593333B1, “Substituted anilino-quinazoline (or quinoline) compounds and use thereof” (Astrazeneca AB, priority 1998, dated 2003).
# Key:
# p38α = biological target: T1, p38α (Homo sapiens, UniProt Q16539); experiment: In vitro enzyme assay, p38α kinase; assay type: biochemical
# T1 construct: c-myc (N); 6His (N); made in house; host or cells: E. coli (PET vectors)
# Method: The ability of compounds of the invention to inhibit the enzyme p38 kinase was assessed. Activity of particular test compounds against each of the p38α and p38β isoforms of the enzyme was determined.
# Human recombinant MKK6 (GenBank Accesion Number G1209672) was isolated from Image clone 45578 (Genomics, 1996, 33, 151) and utilised to produce protein in the form of a GST fusion protein in a pGEX vector using analogous procedures to those disclosed by J. Han et al., Journal of Biological Chemistry, 1996, 271, 2886-2891. p38α (GenBank Accession Number G529039) and p38β (GenBank Accession Number G1469305) were isolated by PCR amplification of human lymphoblastoid cDNA (GenBank Accession Number GM1416) and human foetal brain cDNA [synthesised from mRNA (Clontech, catalogue no. 6525-1) using a Gibco superscript cDNA synthesis kit] respectively using oligonucleotides designed for the 5′ and 3′ ends of the human p38α and p38β genes using analogous procedures to those described by J. Han et al., Biochimica et Biophysica Acta, 1995, 1265, 224-227 and Y. Jiang et al., Journal of Biological Chemistry, 1996, 271, 17920-17926.
# Both p38 protein isoforms were expressed in e coli in PET vectors. Human recombinant p38α and p38β isoforms were produced as 5′ c-myc, 6His tagged proteins. Both MKK6 and the p38 proteins were purified using standard protocols: the GST MKK6 was purified using a glutathione sepharose column and the p38 proteins were purified using nickel chelate columns.
# The p38 enzymes were activated prior to use by incubation with MKK6 for 3 hours at 30° C. The unactivated coli-expressed MKK6 retained sufficient activity to fully activate both isoforms of p38. The activation incubate comprised p38α (10 μl of 10 mg/ml) or p38β (10 μl of 5 mg/ml) together with MKK6 (10 μl of 1 mg/ml), ‘Kinase buffer’ [100 μl; pH 7.4 buffer comprising Tris (50 mM), EGTA (0.1 mM), sodium orthovanadate (0.1 mM) and β-mercaptoethanol (0.1%)] and MgATP (30 μl of 50 mM Mg(OCOCH3)2 and 0.5 mM ATP). This produced enough activated p38 enzyme for 3 Microtiter plates.
# Test compounds were solubilised in DMSO and 10 μl of a 1:10 diluted sample in ‘Kinase Buffer’ was added to a well in a Microtiter plate. […] The precipitated protein was phosphorylated by p38 kinase and test compounds were assessed for their ability to inhibit this phosphorylation. The plates were filtered using a Canberra Packard Unifilter and washed with 2% TCA, dried overnight and counted on a Top Count scintillation counter.
# Test compounds were tested initially at a single dose and active compounds were retested to allow IC50 values to be determined.
# [1] = test system: TNFα production, human peripheral blood mononuclear cells; experiment: PBMC test: inhibition of LPS-stimulated TNFα production; assay type: cell-based
# Method: The ability of compounds of this invention to inhibit TNFα production was assessed by using human peripheral blood mononuclear cells which synthesise and secrete TNFα when stimulated with lipopolysaccharide.
# Peripheral blood mononuclear cells (PBMC) were isolated from heparinised (10 units/ml heparin) human blood by density centrifugation (Lymphoprep™; Nycomed). Mononuclear cells were resuspended in culture medium [RPMI 1640 medium (Gibco) supplemented with 50 units/ml penicillin, 50 μg/ml streptomycin, 2 mM glutamine and 1% heat-inactivated human AB serum (Sigma H-1513)]. Compounds were solubilised in DMSO at a concentration of 50 mM, diluted 1:100 in culture medium and subsequently serial dilutions were made in culture medium containing 1% DMSO. PBMCs (2.4×10^5 cells in 160 μl culture medium) were incubated with 20 μl of varying concentrations of test compound (triplicate cultures) or 20 μl culture medium containing 1% DMSO (control wells) for 30 minutes at 37° C. in a humidified (5%CO2/95% air) incubator (Falcon 3072; 96 well flat-bottom tissue culture plates). 20 μl lipopolysaccharide [LPS E.Coli 0111:B4 (Sigma L-4130), final concentration 10 μg/ml] solubilised in culture medium was added to appropriate wells. 20 μl culture medium was added to “medium alone” control wells. Six “LPS alone” and four “medium alone” controls were included on each 96 well plate. Varying concentrations of a known TNFα inhibitor were included in each test, i.e. an inhibitor of the PDE Type IV enzyme (for example see Semmler, J. Wachtel. H and Endres, S., Int. J. Immunopharmac. (1993), 15(3), 409-413) or an inhibitor of pro TNFα convertase (for example, see McGeehan, G. M. et al. Nature (1994) 370, 558-561). Plates were incubated for 7 hours at 37° C. (humidified incubator) after which 100 μl of the supernatant was removed from each well and stored at −70° C. (96 well round-bottom plates; Corning 25850). TNFα levels were determined in each sample using a human TNFα ELISA (see WO92/10190 and Current Protocols in Molecular Biology, vol 2 by Frederick M. Ausbel et al., John Wiley and Sons Inc.).
# % inhibition=(LPS alone−medium alone)−(test concentration−medium alone)/(LPS alone−medium alone)×100
# T1 sequence (Q16539 whole entry): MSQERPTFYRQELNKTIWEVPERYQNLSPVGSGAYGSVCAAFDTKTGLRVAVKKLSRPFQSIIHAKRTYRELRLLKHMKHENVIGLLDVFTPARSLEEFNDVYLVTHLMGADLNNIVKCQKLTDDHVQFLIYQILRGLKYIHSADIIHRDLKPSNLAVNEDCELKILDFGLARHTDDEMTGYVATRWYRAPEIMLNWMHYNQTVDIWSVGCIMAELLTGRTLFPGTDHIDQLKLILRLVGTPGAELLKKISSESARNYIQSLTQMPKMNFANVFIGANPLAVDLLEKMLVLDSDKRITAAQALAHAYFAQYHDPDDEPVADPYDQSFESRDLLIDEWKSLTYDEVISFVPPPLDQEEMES
IC50 (p38α) [nM],IC50 [1] [nM],SMILES
200,5200,"COc1cc2c(Nc3cc(NC(=O)c4cccc(N(C)C)c4)ccc3C)ncnc2c(OC)c1OC [Example 24, 4-[2-Methyl-5-(3-dimethylaminobenzamido)anilino]-6,7,8-trimethoxyquinazoline]"
1300,3600,COc1cc2ncnc(Nc3ccc(C)c(NC(=O)c4ccccc4)c3)c2cc1OC [Example 11]
100,2000,COc1cc2c(Nc3cc(NC(=O)c4cccc(N(C)C)c4)ccc3C)ncnc2cc1OCCCN1CCOCC1 [Example 38]
3400,3200,CCC(=O)Nc1cc(Nc2ncnc3cc(OC)c(OC)cc23)ccc1F [Example 14]
